# Reference: patent publication US20140194506A1, “Use of Potassium Piperonyl Pentadienoate for Lowering Blood Lipid” (INNER MONGOLIA UNIVERSITY, priority 2011, published 2014)
# Where “and” joins values, the source holds several entries; their conditions need not be identical. Equal values may be shown once.
# Columns and labels:
# [1] = test system: high lipid mode white rats; assay: Prophylactic blood lipid lowering in high lipid feed white rats (Example 2); assay type: in vivo, Wistar male white rats
# From the text: High lipid feed formula: cholesterol 3%, lard 10%, sodium cholate 0.5%, basal feed: […] (formula: flour 17.14%, rice flour 8.57%, maize […], bran 21%, fish flour 1.71%, dairy salt 0.857%, vitamin 0.085%, bean material 17.14%).
# 60 Wistar White male rats of 150±10 g of body weight were fed with common standard feed for 5 days, and then divided into 6 groups randomly. Each group included 10 rats. Group I was a blank group, where the rats were fed with common standard feed. Group II was a high lipid feed mode control group. Group III was a Simvastatin 10 mg/kg group. Group IV was a GB-O group. Group V was a GB-H group. Group VI was a GB-K group. High lipid feed mode control group were fed with high lipid feed together with distilled water. Groups III, IV, V, and VI were fed with high lipid feed together with required simvastatin, GB-O, GB-H, and GB-K suspensions (formulated by grinding with 0.5% sodium […] CMC-Na) respectively. The dosing amount was 0.046 mmol/kg, and the amount of high lipid feed was 20 g per day for each rat. The grouping and the dosing amount for each group can be found in table 1.
# (§1) The body weights of white rats were determined and recorded every day. The rats in each group were dosed basing on its body weight by feeding for 14 days at 22° C. of room temperature and 40-50% of relative humidity. On the 14th day, after fasting and freely receiving water for 16 hours, its blood was sampled from aorta, placed for 30 min to blood coagulate, and centrifugated for 15 min at 3000 r/min to separate serum. The values of serum total cholesterol (TC), and triglyceride (TG) were determined on an automatic analyzer using enzymatic colorimetry, the value of high density lipoprotein cholesterol (HDL) was determined using a phosphotungstic acid-Mg precipitation method, and the value of low density lipoprotein cholesterol (LDL) was determined using the polyvinyl sulfate precipitation method.
# (§2) All data were treated statistically, and were presented as means±standard deviations (x±s). The significance of difference was judged by T test. The calculation of p value was obtained by comparing the high lipid mode group with the blank control group, and comparing other test drug groups with the high lipid mode group.
# (§3) The reaction temperature was 37° C. The cholesterol ester in serum was first hydrolyzed into free cholesterol (FC) and fatty acid with cholesterol ester hydrolase (CEH). Then, all FC in serum was oxidized into ch-4-en-3-one and H2O2 with cholesterol oxidase (COD). The resulting H2O2 was reacted with 4-aminoantipyrine (4-AAP) and 4-chlorophenol in the presence of peroxidase (POD) (Trinder reaction), to yield red quinine imine, which was calorimetrically tested at a 500 nm wavelength.
# The reaction temperature was 37° C. The triglyceride ire serum was first hydrolyzed into glycerol and fatty acid with lipoprotein lipase (LPL). The resulting glycerol was reacted with ATP in the presence of glycerol kinase (GK), to produce glycerol-3-phosphate and ADP. The resulting glycerol-3-phosphate was oxidized into dihydroxyacetone phosphate and H2O2 with oxygen in the presence of glycerol phosphate oxidase (GPO). The resulting H2O2 was reacted with 4-aminoantipyrine (4-AAP) and 4-chlorophenol in the presence of peroxidase (POD) (Trinder reaction), to yield red quinine imine, which was colorimetrically determined at a 500 nm wavelength.
# The LDL in serum was precipitated using PVS. The serum TC and the Ch in the resulting supernatant were determined using the enzymatic methods described hereinabove, and the LDL-C was calculated by subtracting the Ch from the serum TC. The polyethylene glycol monoether (PEGME) was added in a suitable amount in order to facilitate the precipitation of LDL. […]
# [2] = test system: high lipid mode white rats; assay: Therapeutic blood lipid lowering in hyperlipoidemia mode white rats (Example 3); assay type: in vivo, Wistar male white rats
# From the text: High lipid feed formula: cholesterol 3%, lard 10%, sodium cholate 0.5%, basal feed: 86.5% (formula: flour 17.14%, rice flour 8.57%, maize 17.14%, bran 21%, fish flour 1.71%, dairy salt 0.857%, vitamin 0.085%, bean material 17.14%).
# 72 Wistar white male rats of 170±10 g of body weight were divided into 6 groups randomly and numbered. Each group included 12 rats. The rats were fed with common standard feed under experimental conditions and observed for 7 days, and its blood was sampled from tail for testing serum total cholesterol (TC). […] From the 8th day, the group I was set as a blank group, and was fed with common standard feed. Other groups were fed with high lipid feed for 8 days in a row, and the blood was sampled from tail on the next day for testing TC. […] The rats then were divided into 5 groups randomly (see table 12) according to TC levels. Each group included 10 rats (10 rats who were unsuccessful blood lipid modes were discarded). The rats were ted with high lipid teed continuously. Group was a high lipid feed mode control group. Group III was a Simvastatin 10 mg/kg group. Group IV was a GB-O group. Group V was a GB-H group. Group VI was a GB-K group. The high lipid feed mode control group was fed with high lipid feed together with distilled water. Groups III, IV, V, and VI were fed with high lipid feed together with required simvastatin, GB-O, GB-H, and GB-K suspensions (formulated by grinding with 0.5% sodium carboxymethycellulose CMC-Na) respectively. The dosing amount was 0.046 mmol/kg, and the amount of high lipid feed was 20 g per day for each rat. The grouping and the dosing amount for each group can be found in table 13.
# as §1, with “rats for” for “rats in”, “dosed basing,” for “dosed basing”, “hours, the” for “hours, its”, “coagulate,” for “coagulate, and”, “using a” for “using the”
# as §2, with “and are” for “and were”, “as means standard” for “as means±standard”
# as §3, with “hydrolase (CEH.)” for “hydrolase (CEH).”, “and H2O2)” for “and H2O2”, “resulting H2O2,” for “resulting H2O2”, “was colarimetrically” for “was calorimetrically”, “at” for “at a”
# The reaction temperature was 37° C. The triglyceride in serum was first hydrolyzed into glycerol and fatty acid with lipoprotein lipase (LPL). The resulting glycerol was reacted with ATP in the presence of glycerol kinase (GK), to produce glycerol-3-phosphate and ADP. The resulting glycerol-3-phosphate was oxidized into dihydroxyacetone phosphate and H2O2 with oxygen in the presence of glycerol phosphate oxidase (GPO). […]
# [3] = group mean n=10, 15th day after administration
# [4] = rats No. 1-10, 0.046 mmol/kg (Simvastatin 10 mg/kg), 15th day after administration
smiles,measurement,setting,value
CCC(C)(C)C(=O)O[C@H]1C[C@@H](C)C=C2C=C[C@H](C)[C@H](CC[C@@H]3C[C@@H](O)CC(=O)O3)[C@H]21 [Simvastatin],Total cholesterol value,"[1]; Table 6, mean ± standard deviation, n=10",13.88 ± 3.27
same,Triglyceride value,"[1]; Table 7, mean ± standard deviation, n=10",1.22 ± 0.1841 mmol/L
same,Low density lipoprotein cholesterol,"[1]; Table 8, mean ± standard deviation, n=10",4.223 ± 0.9989 mmol/L
same,High density lipoprotein cholesterol,"[1]; Table 9, mean ± standard deviation, n=10",0.331 ± 0.0767 mmol/L
same,"serum total cholesterol (TC) contents, Mean","[1]; group mean n=10, 0.046 mmol/kg (Simvastatin 10 mg/kg), 15th day after administration",13.88 mmol/L
same,"serum high density lipoprotein cholesterol (HDL) contents, Mean",[1]; [3],0.33 mmol/L
same,"serum low density lipoprotein cholesterol (LDL) contents, Mean",[1]; [3],4.22 mmol/L
same,"serum triglyceride (TG) contents, Mean",[1]; [3],1.22 mmol/L
same,"serum high density lipoprotein cholesterol (HDL) contents, individual rats",[1]; [4],0.26 mmol/L and 0.29 mmol/L and 0.31 mmol/L (2×) and 0.47 mmol/L and 0.39 mmol/L and 0.24 mmol/L and 0.33 mmol/L and 0.43 mmol/L and 0.28 mmol/L
same,"serum low density lipoprotein cholesterol (LDL) contents, individual rats",[1]; [4],5.81 mmol/L and 4.98 mmol/L and 5.32 mmol/L and 3.73 mmol/L and 5.14 mmol/L and 3.99 mmol/L and 3.33 mmol/L and 3.37 mmol/L and 3.63 mmol/L and 2.93 mmol/L
same,"serum triglyceride (TG) contents, individual rats",[1]; [4],1.12 mmol/L and 1.53 mmol/L and 0.93 mmol/L and 1.36 mmol/L and 1.26 mmol/L and 1.00 mmol/L and 1.19 mmol/L and 1.23 mmol/L and 1.31 mmol/L and 1.28 mmol/L
same,"serum total cholesterol (TC) contents, individual rats","[1]; rats No. 1-10, high lipid feed plus drug 14 days, 0.046 mmol/kg (Simvastatin 10 mg/kg), 15th day after administration",19.21 mmol/L and 14.11 mmol/L and 12.51 mmol/L and 11.11 mmol/L and 9.19 mmol/L and 11.57 mmol/L and 10.31 mmol/L and 15.62 mmol/L and 13.60 mmol/L and 18.06 mmol/L
same,Total cholesterol value,"[2]; Table 18, mean ± standard deviation, n=10",9.59 ± 1.50
same,Triglyceride value,"[2]; Table 19, mean ± standard deviation, n=10",2.62 ± 0.54 mmol/L
same,Low density lipoprotein cholesterol,"[2]; Table 20, mean ± standard deviation, n=10",2.90 ± 0.67 mmol/L
same,High density lipoprotein cholesterol,"[2]; Table 21, mean ± standard deviation, n=10",0.75 ± 0.20 mmol/L
same,"serum high density lipoprotein cholesterol (HDL) contents, Mean",[2]; [3],0.75 mmol/L
same,"serum low density lipoprotein cholesterol (LDL) contents, Mean",[2]; [3],2.90 mmol/L
same,"serum total cholesterol (TC) contents, Mean",[2]; [3],9.59 mmol/L
same,"serum triglyceride (TG) contents, Mean",[2]; [3],2.62 mmol/L
same,"serum high density lipoprotein cholesterol (HDL) contents, individual rats",[2]; [4],1.11 mmol/L and 0.93 mmol/L and 0.58 mmol/L and 0.67 mmol/L and 0.37 mmol/L and 0.81 mmol/L and 0.77 mmol/L and 0.92 mmol/L and 0.66 mmol/L and 0.72 mmol/L
same,"serum low density lipoprotein cholesterol (LDL) contents, individual rats",[2]; [4],2.51 mmol/L and 2.84 mmol/L and 2.67 mmol/L and 3.38 mmol/L and 1.97 mmol/L and 2.37 mmol/L and 3.71 mmol/L and 4.12 mmol/L and 3.12 mmol/L and 2.36 mmol/L
same,"serum triglyceride (TG) contents, individual rats",[2]; [4],1.95 mmol/L and 3.67 mmol/L and 2.38 mmol/L and 2.08 mmol/L and 2.27 mmol/L and 3.27 mmol/L and 2.67 mmol/L and 2.36 mmol/L and 2.68 mmol/L and 2.96 mmol/L
same,"serum total cholesterol (TC) contents, individual rats","[2]; rats No. 1-10, hyperlipoidemia mode, drug 14 days, 0.046 mmol/kg (Simvastatin 10 mg/kg), 15th day after administration",7.61 mmol/L and 9.38 mmol/L and 8.81 mmol/L and 8.39 mmol/L and 12.67 mmol/L and 10.34 mmol/L and 9.37 mmol/L (2×) and 8.61 mmol/L and 11.34 mmol/L
